How the values were obtained:
[1] = The drug is tested on WLS-090 corresponding to human gut metagenome with ENA study accession number: PRJEB37062 and ENA sample accession number: ERS12561753 for biotransformation under anaerobic condition. The drug concentrations were measured over 9 timepoints collected between 0 and 24 hours of incubation by liquid-chromatography-coupled mass spectrometry (LC–MS); settings: 2 µM
[2] = The drug is tested on WLS-098 corresponding to human gut metagenome with ENA study accession number: PRJEB37062 and ENA sample accession number: ERS12561754 for biotransformation under anaerobic condition. The drug concentrations were measured over 9 timepoints collected between 0 and 24 hours of incubation by liquid-chromatography-coupled mass spectrometry (LC–MS); settings: 2 µM
[3] = The drug is tested on WLS-350 corresponding to human gut metagenome with ENA study accession number: PRJEB37062 and ENA sample accession number: ERS12561789 for biotransformation under anaerobic condition. The drug concentrations were measured over 9 timepoints collected between 0 and 24 hours of incubation by liquid-chromatography-coupled mass spectrometry (LC–MS); settings: 2 µM
[4] = human gut metagenome, 24 h, 2 µM
[5] = human gut metagenome, 24 h, 2 µM; remark: listed apart in the source
[6] = human gut metagenome, 24 h, 2 µM; remark: listed apart in the source
[7] = human gut metagenome, 24 h, 2 µM; remark: listed apart in the source
[8] = The drug is tested on WLS-010 corresponding to human gut metagenome with ENA study accession number: PRJEB37062 and ENA sample accession number: ERS12561743 for biotransformation under anaerobic condition. The drug concentrations were measured over 9 timepoints collected between 0 and 24 hours of incubation by liquid-chromatography-coupled mass spectrometry (LC–MS); settings: 2 µM
[9] = human gut metagenome, 24 h, 2 µM; remark: listed apart in the source
[10] = The drug is tested on WLS-052 corresponding to human gut metagenome with ENA study accession number: PRJEB37062 and ENA sample accession number: ERS12561747 for biotransformation under anaerobic condition. The drug concentrations were measured over 9 timepoints collected between 0 and 24 hours of incubation by liquid-chromatography-coupled mass spectrometry (LC–MS); settings: 2 µM
[11] = human gut metagenome, 24 h, 2 µM; remark: listed apart in the source
[12] = human gut metagenome, 24 h, 2 µM; remark: listed apart in the source
[13] = human gut metagenome, 24 h, 2 µM; remark: listed apart in the source

Measured: Bacterial Biotransformation
Note: call rule not given here.

N[C@@H](Cc1ccc(N(CCCl)CCCl)cc1)C(=O)O
Compound NOT metabolized: [3] | [6]
not listed: [11] | [12] | [13]
Compound metabolized: all other assays above

CN(C)CCc1c[nH]c2ccc(CS(=O)(=O)N3CCCC3)cc12 [ALMOTRIPTAN]
Compound metabolized: [1] | [11] | [2]
Compound NOT metabolized: all other assays above

CCCCC(=O)O[C@]1(C(=O)CO)[C@@H](C)C[C@H]2[C@@H]3CCC4=CC(=O)C=C[C@]4(C)[C@@]3(F)[C@@H](O)C[C@@]21C [BETAMETHASONE VALERATE]
Compound NOT metabolized: [2] | [3] | [5] | [6]
Compound metabolized: all other assays above

CC(=O)Oc1ccc(C(c2ccc(OC(C)=O)cc2)c2ccccn2)cc1 [BISACODYL]
Compound metabolized: all assays above

Cc1nc(Nc2ncc(C(=O)Nc3c(C)cccc3Cl)s2)cc(N2CCN(CCO)CC2)n1 [DASATINIB ANHYDROUS]
Compound NOT metabolized: [3] | [5] | [6] | [7] | [9] | [13]
Compound metabolized: all other assays above

CNCC[C@H](Oc1cccc2ccccc12)c1cccs1 [DULOXETINE]
Compound metabolized: [1] | [11] | [2] | [6]
Compound NOT metabolized: all other assays above

COCCCC/C(=N\OCCN)c1ccc(C(F)(F)F)cc1.O=C(O)/C=C\C(=O)O [FLUVOXAMINE MALEATE]
Compound metabolized: [1] | [4]
Compound NOT metabolized: all other assays above

CC#CCn1c(N2CCC[C@@H](N)C2)nc2c1c(=O)n(Cc1nc(C)c3ccccc3n1)c(=O)n2C [LINAGLIPTIN]
Compound metabolized: [7]
not listed: [10] | [13]
Compound NOT metabolized: all other assays above

CN1CCN(C2=Nc3ccccc3Oc3ccc(Cl)cc32)CC1.O=C(O)CCC(=O)O [LOXAPINE SUCCINATE]
Compound NOT metabolized: all assays above

CCOC(=O)C1=C(C)NC(C)=C(C(=O)OC)C1c1cccc([N+](=O)[O-])c1 (stereo not given) [NITRENDIPINE]
Compound NOT metabolized: [12]
Compound metabolized: all other assays above

— ChEMBL document CHEMBL5724914, “Linking interpersonal differences in gut microbiota composition and drug biotransformation activity” (2024)
